Molecular target: T1, HSA (human serum albumin) (Homo sapiens, UniProt P02768)
T1 construct: gene ALB; commercial HSA (Shanghai Yuanye); amine-coupled to CM5 chip
Experiment: SPR (Biacore T200, immobilized protein on CM5)
Type: binding

T1 sequence (P02768 25-609): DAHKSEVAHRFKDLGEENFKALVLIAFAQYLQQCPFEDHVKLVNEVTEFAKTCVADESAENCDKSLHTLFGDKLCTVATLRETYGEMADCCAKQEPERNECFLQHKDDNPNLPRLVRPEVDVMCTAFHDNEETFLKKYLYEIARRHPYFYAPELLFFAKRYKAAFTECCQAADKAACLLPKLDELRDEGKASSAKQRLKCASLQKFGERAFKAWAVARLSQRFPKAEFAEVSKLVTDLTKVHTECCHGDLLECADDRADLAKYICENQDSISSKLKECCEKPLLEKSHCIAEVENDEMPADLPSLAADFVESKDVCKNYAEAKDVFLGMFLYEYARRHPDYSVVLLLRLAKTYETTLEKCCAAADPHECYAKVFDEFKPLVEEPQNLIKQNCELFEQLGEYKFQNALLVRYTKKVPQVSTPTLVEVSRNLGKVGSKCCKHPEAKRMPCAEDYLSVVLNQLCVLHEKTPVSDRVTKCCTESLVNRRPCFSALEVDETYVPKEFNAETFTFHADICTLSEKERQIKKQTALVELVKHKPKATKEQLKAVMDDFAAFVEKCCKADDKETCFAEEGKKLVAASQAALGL

A Kd of 2120 nM was found for `C=Cc1c(C)c2cc3nc(c(CC(=O)O)c4[nH]c(cc5nc(cc1[nH]2)C(C)=C5CC)c(C)c4C(=O)O)[C@@H](CCC(=O)O)[C@@H]3C` [Ce6] in this work.
